Measured values from ChEMBL document CHEMBL1201862, “PubChem BioAssay data set” (2004).
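Growth conditions: 96-well plates. Treatment: test compound, 48 hours, 5 concentrations. Analysis: linear interpolation between bracketing concentrations; unreached endpoints set to highest concentration. GI50: concentration for 50% inhibition of growth.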 The source made the active and inactive calls. Rule as the data show it: active = GI50 up to about 1.1 µM and inactive = higher.

Columns and labels:
Assay in all cases: NCI tumour cell line growth inhibition, 48 h
SW-620 = test system: SW-620
DMS-114 = test system: DMS-114
SNB-19 = test system: SNB-19
SK-MEL-5 = test system: SK-MEL-5
A498 = test system: A498
MDA-MB-231 = test system: MDA-MB-231
CAKI-1 = test system: CAKI-1
UO-31 = test system: UO-31
U-251 = test system: U-251
SF-539 = test system: SF-539
KM12 = test system: KM12
786-0 = test system: 786-0
HCT-15 = test system: HCT-15
SF-295 = test system: SF-295
UACC-257 = test system: UACC-257
Hs-578T = test system: Hs-578T
A549 = test system: A549
T47D = test system: T47D
SK-OV-3 = test system: SK-OV-3
NCI-H522 = test system: NCI-H522

Row | SMILES | GI50 (SW-620) | GI50 (DMS-114) | GI50 (SNB-19) | GI50 (SK-MEL-5) | GI50 (A498) | GI50 (MDA-MB-231) | GI50 (CAKI-1) | GI50 (UO-31) | GI50 (U-251) | GI50 (SF-539) | GI50 (KM12) | GI50 (786-0) | GI50 (HCT-15) [µM] | GI50 (SF-295) | GI50 (UACC-257) | GI50 (Hs-578T) | GI50 (A549) | GI50 (T47D) | GI50 (SK-OV-3) | GI50 (NCI-H522)
1 | BrCc1ccc2ccc3ccc(CBr)nc3c2n1 | 2.2 µM (inactive) | 3.85 µM (inactive) | 12.7 µM (inactive) | 2.77 µM (inactive) | 2.64 µM (inactive) | 1.62 µM (inactive) | 3.55 µM (inactive) | 2.12 µM (inactive) | 5.56 µM (inactive) | 4.67 µM (inactive) | 3.61 µM (inactive) | 2.51 µM (inactive) | 2.01 | 10.4 µM (inactive) | 3.18 µM (inactive) | 17.9 µM (inactive) | 13.3 µM (inactive) | 1.42 µM (inactive) | 3.08 µM (inactive) | 
2 | O=C(CC1(O)C(=O)Nc2c(Cl)ccc(Cl)c21)c1ccco1 (stereo not drawn) | 20.1 µM (inactive) | 18 µM (inactive) | 42.3 µM (inactive) | 17.8 µM (inactive) | 30.4 µM (inactive) | 25.5 µM (inactive) | 26.1 µM (inactive) | 35.8 µM (inactive) | 22.7 µM (inactive) | 27.9 µM (inactive) | 27 µM (inactive) | 15.5 µM (inactive) | 25.2 | 20.1 µM (inactive) | 18 µM (inactive) | 26 µM (inactive) | 23 µM (inactive) | 35.6 µM (inactive) | 31.5 µM (inactive) | 44.3 µM (inactive)
3 | C[N+](C)(C)CC(=O)NC(=O)N/N=C\C(CC#N)CN(Cc1ccccc1)Cc1ccccc1 (stereo not drawn) | > 100 µM (inactive) | > 100 µM (inactive) | > 100 µM (inactive) | > 100 µM (inactive) | > 100 µM (inactive) |  | > 100 µM (inactive) | > 100 µM (inactive) | > 100 µM (inactive) | > 100 µM (inactive) | > 100 µM (inactive) | > 100 µM (inactive) | > 100 | 38 µM (inactive) | > 100 µM (inactive) |  | > 100 µM (inactive) |  | > 100 µM (inactive) | > 100 µM (inactive)
4 | CN(C)CCNC(=O)c1cc2ccccc2c2nc3ccccc3nc12 | 0.484 µM (active) | 0.83 µM (active) | 1.43 µM (inactive) | 1.79 µM (inactive) | 1.14 µM (inactive) |  | 2.67 µM (inactive) | 1.8 µM (inactive) | 0.986 µM (active) | 0.845 µM (active) | 0.804 µM (active) | 2.43 µM (inactive) | 0.522 | 0.575 µM (active) | 1.45 µM (inactive) |  | 0.977 µM (active) |  | 4.97 µM (inactive) | 1.89 µM (inactive)
